Columns and labels:
mitochondrial pH [1] = conditions: same cell type given the same drug in a dish
mitochondrial pH [2] = conditions: BALB/cJ mouse, subcutaneous tumor expressing mito-pH-Countdown, before vs after administration of BAM15
Excerpt: Left panel: Raw time lapse animation (grayscale) of the back of a BALB/cJ mouse carrying a subcutaneous tumor expressing mito-pH-Countdown, measured in the GFP channel of a simple fluorescence photography system. […] Orange/blue/green box marks a region expressing mito-pH-Countdown. Right panel: Average fluorescent signal vs. time for two measurements before(orange, dots) and two measurements after (blue or green, triangles) administration of the mitochondrial uncoupler BAM15. […] Light gray lines show calibration measurements for pH 7.5 (solid) and pH 8 (dashed).

For `Fc1ccccc1Nc1nc2nonc2nc1Nc1ccccc1F` [BAM15], the “shift in mitochondrial pH” value (mitochondrial pH [1]) was roughly 1 pH unit and the “drug-induced shift in mitochondrial pH” value (mitochondrial pH [2]) was “roughly 0.2 pH units”.
